Reference: patent US8058270B2, “Dihydropteridinones for the treatment of cancer diseases” (Boehringer Ingelheim International GmbH, priority 2004, dated 2011)

What was measured:
[1] = tested on: cultivated human tumour cells; experiment: Alamar Blue cytotoxicity assay (general); type: cell-based; settings: summary in words, see Table 1
Source text: Alamar Blue™ Cytotoxicity Assays
The Alamar Blue™ assay is designed to measure quantitatively the proliferation of cells by incorporating a fluorometric/colorimetric growth indicator based on the detection of metabolic activity.
Cell culture: The various human tumor cell lines can be purchased from American Type Culture Collection (ATCC) or the German Collection of Microorganisms and Cell Cultures (DSMZ) and cultivated in 75 to 175 cm^2 tissue culture flasks in the medium indicated by the supplier. The cells are maintained at 37° C. and 5% CO2 in a humidified atmosphere, with an appropriate split ratio. Logarithmically growing cells are used for the assays.
Assay conditions: On day one of the experiment 1000-4000 cells (in 100 μl medium) are seeded into each well of a sterile 96-well plate. The number of cells used is dependent on the growth rate and size of the cells. Eight wells on each plate are left free to accommodate for controls (4 wells for medium plus reduced AlamarBlue™, and 4 wells for medium plus oxidized AlamarBlue™). The plates are kept in the incubator overnight. On day two of the experiment serial dilutions of the inhibitor are prepared in medium containing 0.1% DMSO. […] After 4-5 h of incubation, the plates are measured in a fluorescence spectrophotometer (excitation 530 nm, emission 590 nm, slits 15, integrate time 0.1). […]

[2] = tested on: cultivated human tumour cells; experiment: FACS analysis on PI stained tumor cells, cell cycle progression (general); type: cell-based; settings: summary in words, see Table 1
Source text: FACS Analysis on PI Stained Tumor Cells
Propidium iodine (PI) binds stoichiometrically to double stranded DNA and thus is a suitable agent to measure the DNA content of cells in order to determine the percentage of cells residing in various cell cycle stages (G0/1-, S- and G2/M-phases), whereas cells in G0 or G1 phase do have a diploid DNA content (2N) cells in G2 and M-phase (mitosis) do have a doubled (4N) DNA content.
Cell culture: The various human tumor cell lines can be purchased from American Type Culture Collection (ATCC) or the German Collection of Microorganisms and Cell Cultures (DSMZ) and cultivated in 75 to 175 cm^2 tissue culture flasks in the medium indicated by the supplier. […]
Data analysis: Analysis of the DNA content of the cells can be performed using a FACS analyzer equipped with an argon laser (500 mW, emission 488 nm) and the use of the DNA Cell Quest analysis software (Beckton Dickinson). The logarithmic PI fluorescence is determined in a band-pass filter (Beckton Dickinson 585/43). Quantification of the cell populations residing in the individual cell cycle phases (e.g. G0/G1-, S- and G2/M-phases) is done with the ModFit LT software package from Becton Dickinson. An EC50 value for cells arrested at the G2/M-phase of the cell cycle is calculated by using a sigmoidal curve analysis program (Graph Pad Prism version 3.03).

CC[C@@H]1C(=O)N(C)c2cnc(Nc3ccc(C(=O)NC4CCN(C)CC4)cc3OC)nc2N1C1CCCC1 [Example 46, 4-[[(7R)-8-cyclopentyl-7-ethyl-5,6,7,8-tetrahydro-5-methyl-6-oxo-2-pteridinyl]amino]-3-methoxy-N-(1-methyl-4-piperidinyl)-benzamide]
activity in cytotoxicity tests on cultivated human tumour cells [1]: good to very good activity
inhibitory effect on cell cycle progression by FACS analysis [2]: good to very good activity
